Results published in patent US8318746B2, “Nitrogen-containing five-membered heterocyclic compound” (Takeda Pharmaceutical Company Limited, priority 2007, dated 2012).
Structures can show the parent of a compound that is named as a salt.

Structure (SMILES) | melting point
O=C1CC[C@H](CC(c2ccc(S(=O)(=O)C3CC3)cc2)c2ccc(-c3nccs3)[nH]2)C1 (stereo partly drawn) [Example 102, (3R)-3-{2-[4-(cyclopropylsulfonyl)phenyl]-2-[5-(1,3-thiazol-2-yl)-1H-pyrrol-2-yl]ethyl}cyclopentanone] | 165 to 167 °C
CCOC(=O)c1cc(-c2nccs2)[nH]c1C(CC1CCOCC1)c1ccc(S(=O)(=O)C2CC2)cc1 (stereo not shown) [Example 103, Ethyl 2-{1-[4-(cyclopropylsulfonyl)phenyl]-2-(tetrahydro-2H-pyran-4-yl)ethyl}-5-(1,3-thiazol-2-yl)-1H-pyrrole-3-carboxylate] | 178 to 179 °C
O=C(O)c1cc(-c2nccs2)[nH]c1C(CC1CCOCC1)c1ccc(S(=O)(=O)C2CC2)cc1 (stereo not shown) [Example 104, 2-{1-[4-(cyclopropylsulfonyl)phenyl]-2-(tetrahydro-2H-pyran-4-yl)ethyl}-5-(1,3-thiazol-2-yl)-1H-pyrrole-3-carboxylic acid] | 153 to 155 °C
CN(C)C(=O)c1cc(-c2nccs2)[nH]c1C(CC1CCOCC1)c1ccc(S(=O)(=O)C2CC2)cc1 (stereo not shown) [Example 105, 2-{1-[4-(cyclopropylsulfonyl)phenyl]-2-(tetrahydro-2H-pyran-4-yl)ethyl}-N,N-dimethyl-5-(1,3-thiazol-2-yl)-1H-pyrrole-3-carboxamide] | 180 to 182 °C
NC(=O)c1cc(-c2nccs2)[nH]c1C(CC1CCOCC1)c1ccc(S(=O)(=O)C2CC2)cc1 (stereo not shown) [Example 106, 2-{1-[4-(cyclopropylsulfonyl)phenyl]-2-(tetrahydro-2H-pyran-4-yl)ethyl}-5-(1,3-thiazol-2-yl)-1H-pyrrole-3-carboxamide] | 241 to 243 °C
N#Cc1cc(-c2nccs2)[nH]c1C(CC1CCOCC1)c1ccc(S(=O)(=O)C2CC2)cc1 (stereo not shown) [Example 107, 2-{1-[4-(cyclopropylsulfonyl)phenyl]-2-(tetrahydro-2H-pyran-4-yl)ethyl}-5-(1,3-thiazol-2-yl)-1H-pyrrole-3-carbonitrile] | 114 to 116 °C
CC(C)(O)COc1ccc(-c2ccc(C(CC3CCOCC3)c3ccc(S(=O)(=O)C4CC4)cc3)[nH]2)nc1 (stereo not shown) [Example 116, 1-{[6-(5-{1-[4-(cyclopropylsulfonyl)phenyl]-2-(tetrahydro-2H-pyran-4-yl)ethyl}-1H-pyrrol-2-yl)pyridin-3-yl]oxy}-2-methylpropan-2-ol] | 110 to 112 °C
CC(O)COc1ccc(-c2ccc(C(CC3CCOCC3)c3ccc(S(=O)(=O)C4CC4)cc3)[nH]2)nc1 (stereo not shown) [Example 117, 1-{[6-(5-{1-[4-(cyclopropylsulfonyl)phenyl]-2-(tetrahydro-2H-pyran-4-yl)ethyl}-1H-pyrrol-2-yl)pyridin-3-yl]oxy}propan-2-ol] | 116 to 118 °C
COC(=O)c1ccc(-c2ccc(C(CC3CCOCC3)c3ccc(S(=O)(=O)C4CC4)cc3)[nH]2)nc1 (stereo not shown) [Example 118, Methyl 6-(5-{1-[4-(cyclopropylsulfonyl)phenyl]-2-(tetrahydro-2H-pyran-4-yl)ethyl}-1H-pyrrol-2-yl)pyridine-3-carboxylate] | 150 to 152 °C
O=C(NC1CC1)c1ccc(-c2ccc(C(CC3CCOCC3)c3ccc(S(=O)(=O)C4CC4)cc3)[nH]2)nc1 (stereo not shown) [Example 119, N-cyclopropyl-6-(5-{1-[4-(cyclopropylsulfonyl)phenyl]-2-(tetrahydro-2H-pyran-4-yl)ethyl}-1H-pyrrol-2-yl)pyridine-3-carboxamide] | 134 to 136 °C
CCOCCNC(=O)c1ccc(-c2ccc(C(CC3CCOCC3)c3ccc(S(=O)(=O)C4CC4)cc3)[nH]2)nc1 (stereo not shown) [Example 122, 6-(5-{1-[4-(cyclopropylsulfonyl)phenyl]-2-(tetrahydro-2H-pyran-4-yl)ethyl}-1H-pyrrol-2-yl)-N-(2-ethoxyethyl)pyridine-3-carboxamide] | 87 to 90 °C
CC(C)(O)CNC(=O)c1ccc(-c2ccc(C(CC3CCOCC3)c3ccc(S(=O)(=O)C4CC4)cc3)[nH]2)nc1 (stereo not shown) [Example 123, 6-(5-[1-[4-(cyclopropylsulfonyl)phenyl]-2-(tetrahydro-2H-pyran-4-yl)ethyl]-1H-pyrrol-2-yl)-N-(2-hydroxy-2-methylpropyl)pyridine-3-carboxamide] | 126 to 128 °C
NC(=O)c1ccc(-c2ccc(C(CC3CCOCC3)c3ccc(S(=O)(=O)C4CC4)cc3)[nH]2)nc1 (stereo not shown) [Example 124, 6-(5-{1-[4-(cyclopropylsulfonyl)phenyl]-2-(tetrahydro-2H-pyran-4-yl)ethyl}-1H-pyrrol-2-yl)pyridine-3-carboxamide] | 136 to 138 °C
CC(C)(O)c1ccc(-c2ccc(C(CC3CCOCC3)c3ccc(S(=O)(=O)C4CC4)cc3)[nH]2)nc1 (stereo not shown) [Example 125, 2-[6-(5-{1-[4-(cyclopropylsulfonyl)phenyl]-2-(tetrahydro-2H-pyran-4-yl)ethyl}-1H-pyrrol-2-yl)pyridin-3-yl]propan-2-ol] | 112 to 114 °C
CC(C)=Cc1ccc(-c2ccc(C(CC3CCOCC3)c3ccc(S(=O)(=O)C4CC4)cc3)[nH]2)nc1 (stereo not shown) [Example 126, 2-(5-{1-[4-(cyclopropylsulfonyl)phenyl]-2-(tetrahydro-2H-pyran-4-yl)ethyl}-1H-pyrrol-2-yl)-5-(2-methylprop-1-en-1-yl)pyridine] | 114 to 116 °C
O=C(O)Cc1ccc(-c2ccc(C(CC3CCOCC3)c3ccc(S(=O)(=O)C4CC4)cc3)[nH]2)nc1 (stereo not shown) [Example 129, [6-(5-{1-[4-(cyclopropylsulfonyl)phenyl]-2-(tetrahydro-2H-pyran-4-yl)ethyl}-1H-pyrrol-2-yl)pyridin-3-yl]acetic acid] | 124 to 127 °C
NC(=O)Cc1ccc(-c2ccc(C(CC3CCOCC3)c3ccc(S(=O)(=O)C4CC4)cc3)[nH]2)nc1 (stereo not shown) [Example 132, 2-[6-(5-{1-[4-(cyclopropylsulfonyl)phenyl]-2-(tetrahydro-2H-pyran-4-yl)ethyl}-1H-pyrrol-2-yl)pyridin-3-yl]acetamide] | 151 to 153 °C
CC(C)(O)C(O)c1ccc(-c2ccc(C(CC3CCOCC3)c3ccc(S(C)(=O)=O)c(Cl)c3)[nH]2)nc1 (stereo not shown) [Example 133, 1-[6-(5-{1-[3-chloro-4-(methylsulfonyl)phenyl]-2-(tetrahydro-2H-pyran-4-yl)ethyl}-1H-pyrrol-2-yl)pyridin-3-yl]-2-methylpropane-1,2-diol] | 138 to 140 °C
CS(=O)(=O)c1ccc(C(CC2CCOCC2)c2ccc(-c3ccccn3)[nH]2)cn1 (stereo not shown) [Example 137, 2-(methylsulfonyl)-5-[1-(5-(pyridin-2-yl)-1H-pyrrol-2-yl)-2-(tetrahydro-2H-pyran-4-yl)ethyl]pyridine] | 89 to 90 °C

Results, then the compound that gave them:

melting point | Structure (SMILES)
156 to 158 °C | CC(=O)N1CCN(Cc2cnc(-c3ccc(C(CC4CCOCC4)c4ccc(S(=O)(=O)C5CC5)cc4)[nH]3)s2)CC1.Cl (stereo not shown)
146 to 148 °C | Cl.O=C1CCN(Cc2cnc(-c3ccc(C(CC4CCOCC4)c4ccc(S(=O)(=O)C5CC5)cc4)[nH]3)s2)CC1 (stereo not shown)
> 194 °C (dec.) | O=C(O)CCc1cnc(-c2ccc(C(CC3CCOCC3)c3ccc(S(=O)(=O)C4CC4)cc3)[nH]2)s1 (stereo not shown) (as salt: calcium) [Example 163, 3-[2-(5-{1-[4-(cyclopropylsulfonyl)phenyl]-2-(tetrahydro-2H-pyran-4-yl)ethyl}-1H-pyrrol-2-yl)-1,3-thiazol-5-yl]propanoic acid 1/2 calcium salt]
147 to 148 °C | CC(c1cnc(-c2ccc(C(CC3CCOCC3)c3ccc(S(=O)(=O)C4CC4)cc3)[nH]2)s1)N(C)C (stereo not shown) (as salt: hydrochloride) [Example 157, 1-[2-(5-{1-[4-(cyclopropylsulfonyl)phenyl]-2-(tetrahydro-2H-pyran-4-yl)ethyl}-1H-pyrrol-2-yl)-1,3-thiazol-5-yl]-N,N-dimethylethanamine dihydrochloride]
109 to 110 °C | O=C(c1ccc(-c2ccc(C(CC3CCOCC3)c3ccc(S(=O)(=O)C4CC4)cc3)[nH]2)nc1)N1CCC1 (stereo not shown) [Example 120]
114 to 116 °C | O=C(c1ccc(-c2ccc(C(CC3CCOCC3)c3ccc(S(=O)(=O)C4CC4)cc3)[nH]2)nc1)N1CCOCC1 (stereo not shown) [Example 121, 5-(morpholin-4-ylcarbonyl)-2-(5-[1-[4-(cyclopropylsulfonyl)phenyl]-2-(tetrahydro-2H-pyran-4-yl)ethyl]-1H-pyrrol-2-yl)pyridine]
139 to 141 °C | N#CCc1ccc(-c2ccc(C(CC3CCOCC3)c3ccc(S(=O)(=O)C4CC4)cc3)[nH]2)nc1 (stereo not shown) [Example 128, [6-(5-{1-[4-(cyclopropylsulfonyl)phenyl]-2-(tetrahydro-2H-pyran-4-yl)ethyl}-1H-pyrrol-2-yl)pyridin-3-yl]acetonitrile]
202 to 203 °C | O=C(Cc1ccc(-c2ccc(C(CC3CCOCC3)c3ccc(S(=O)(=O)C4CC4)cc3)[nH]2)nc1)N1CCOCC1 (stereo not shown) [Example 130, 4-{[6-(5-{1-[4-(cyclopropylsulfonyl)phenyl]-2-(tetrahydro-2H-pyran-4-yl)ethyl}-1H-pyrrol-2-yl)pyridin-3-yl]acetyl}morpholine]
94 to 98 °C | O=C(Cc1ccc(-c2ccc(C(CC3CCOCC3)c3ccc(S(=O)(=O)C4CC4)cc3)[nH]2)nc1)N1CCC1 (stereo not shown) [Example 131, 5-(2-(azetidin-1-yl)-2-oxoethyl)-2-(5-{1-[4-(cyclopropylsulfonyl)phenyl]-2-(tetrahydro-2H-pyran-4-yl)ethyl}-1H-pyrrol-2-yl)pyridine]
184 to 185 °C | O=C1CN(Cc2cnc(-c3ccc(C(CC4CCOCC4)c4ccc(S(=O)(=O)C5CC5)cc4)[nH]3)s2)C(=O)N1 (stereo not shown) [Example 147, 1-{[2-(5-{1-[4-(cyclopropylsulfonyl)phenyl]-2-(tetrahydro-2H-pyran-4-yl)ethyl}-1H-pyrrol-2-yl)-1,3-thiazol-5-yl]methyl}imidazolidine-2,4-dione]
246 to 247 °C (dec.) | O=C(O)Cc1cnc(-c2ccc(C(CC3CCOCC3)c3ccc(S(=O)(=O)C4CC4)cc3)[nH]2)s1 (stereo not shown) [Example 149, [2-(5-{1-[4-(cyclopropylsulfonyl)phenyl]-2-(tetrahydro-2H-pyran-4-yl)ethyl}-1H-pyrrol-2-yl)-1,3-thiazol-5-yl]acetic acid]
175 to 176 °C | O=Cc1cnc(-c2ccc(C(CC3CCOCC3)c3ccc(S(=O)(=O)C4CC4)cc3)[nH]2)s1 (stereo not shown) [Example 158, 2-(5-{1-[4-(cyclopropylsulfonyl)phenyl]-2-(tetrahydro-2H-pyran-4-yl)ethyl}-1H-pyrrol-2-yl)-1,3-thiazole-5-carbaldehyde]
